Tests used:
lung cancer cells [1] = assay: Local UV irradiation and immunofluorescence (6-4PP repair kinetics, XPA foci); format: cell-based, human; settings: for XPA foci-positive cells, Pt-PreC vs nonPreC: FIG. 7B
Description: Results are presented as mean±SD from three independent experiments. Differences were considered significant at the value of P<0.01 (**). FIGS. 8A to 8D show the upregulation of SIRT1 expression during PreC. […] GAPDH was used as a loading control. […] Histone H3 was used to indicate chromatin-enriched fraction. […] 60 minutes after local UV irradiation the 6-4PP foci-positive cells were counted from randomly selected 1000 cells in each sample. The bars and error bars represent the mean±s.d from three independent experiments. Differences were considered significant at the value of P<0.001 (***). […] After incubation for the recovery times the cells were fixed in 4% paraformaldehyde for 15 min, followed by conventional immunofluorescence staining procedures. UV-induced lesions were counter-labeled with anti-6-4PP antibody, and XPA foci-positive cells were counted for quantitative analysis. The images were captured using Nikon imaging software NIS-Elements 4.0.

lung cancer cells [2] = assay: Immunoslot blotting of residual UV-induced CPDs after cisplatin preconditioning; format: cell-based, human; settings: preconditioning with 5 μM cisplatin; 5 or 10 J/m^2 UV; FIGS. 3B and 3C
Description: FIGS. 3A to 3C show the enhanced UV-induced CPD repair activity following Pt-PreC. […] After immunoslot blotting the membrane was counterstained with SYBR-Gold for a loading control of genomic DNA. 5 J/m^2 (FIG. 3B) or 10 J/m^2 (FIG. 3C) of UV-induced CPD repair kinetics were measured from cells conditioned with nonPreC or Pt-PreC.
(§1) A549 and H460 cells (American Type Culture Collection, Manassas, Va., USA) were cultured in Dulbecco's modified Eagle medium supplemented with 10% fetal bovine serum and 1% penicillin-streptomycin. 100% confluent cells were kept for additional four days to completely block cell proliferation and then exposed to the UV light using a germicidal lamp (for immunoslot blotting) or UV crosslinker (for immunofluorescence) emitting primarily UV-C light. A UV-C sensor (UV Products, Upland, Calif., USA) was used to calibrate the fluence rate of the incident light. For immunofluorescence staining, cells were grown on a glass coverslip coated with poly-D-lysine and laminin (BD Biosciences, San Jose, Calif., USA). For assessment of cell viability, CellTiter-Fluor Cell Viability Assay kit (Promega, Madison, Wis., USA) was used as indicated in manufacturer's protocol. Fluorescence plate reader (BIORAD, Hercules, Calif., USA) was used to measure a constitutive protease activity within live cells using a fluorogenic and cell permeable peptide substrate. […]

lung cancer cells [3] = assay: Immunoslot blotting of Pt-GpG adduct removal after cisplatin preconditioning; format: cell-based, human
Description: as §1, with “FIGS. 4A and 4B show the enhanced Pt-GpG diadduct removal by Pt-PreC. […] The bars and error bars represent the mean±s.d from three independent experiments. A549” for “A549”

[4] = test system: 6-4PP-containing DNA substrate; assay: Dual-incision NER activity assay with lysate of Pt-PreC cells; format: cell-based, human; settings: FIG. 5
Description: Dual-incision NER activity assay was performed using isotope-labeled and 6-4PP-containing linear substrate DNA and cell lysates obtained from nonPreC and Pt-PreC cells at the indicated times after PreC. Amount of excision product was used as a measure of the NER capacity of the lysate. Results are presented as mean±SD from three independent experiments. Differences were considered significant at the values of P<0.01 (**) and P<0.001 (***). Assay of NER activity in the cell lysate toward 6-4PP-containing DNA substrate was carried out. Briefly, 10 fmol of 140-bp duplex with a 6-4PP in the center and ^32P-label at the 5th phosphodiester bond 5′ to the site of the lesion was incubated with 70 μg of lysate in 25 μL of excision buffer at 30° C. for 1 h. The amount of excision product was used as a measure of NER capacity in the lysate. The 6-4PP-containing linear duplex substrate DNA and NER-competent cell lysate were prepared.

SIRT1 [5] = biological target: T1, SIRT1 (Homo sapiens, UniProt Q96EB6); assay: XPA acetylation by immunoprecipitation of XPA and immunoblotting with anti-acetyl-lysine antibody; format: cell-based; settings: UV-PreC cells pretreated with EX527 for 5 h before cisplatin treatment; FIG. 8B
T1 sequence (Q96EB6 1-747): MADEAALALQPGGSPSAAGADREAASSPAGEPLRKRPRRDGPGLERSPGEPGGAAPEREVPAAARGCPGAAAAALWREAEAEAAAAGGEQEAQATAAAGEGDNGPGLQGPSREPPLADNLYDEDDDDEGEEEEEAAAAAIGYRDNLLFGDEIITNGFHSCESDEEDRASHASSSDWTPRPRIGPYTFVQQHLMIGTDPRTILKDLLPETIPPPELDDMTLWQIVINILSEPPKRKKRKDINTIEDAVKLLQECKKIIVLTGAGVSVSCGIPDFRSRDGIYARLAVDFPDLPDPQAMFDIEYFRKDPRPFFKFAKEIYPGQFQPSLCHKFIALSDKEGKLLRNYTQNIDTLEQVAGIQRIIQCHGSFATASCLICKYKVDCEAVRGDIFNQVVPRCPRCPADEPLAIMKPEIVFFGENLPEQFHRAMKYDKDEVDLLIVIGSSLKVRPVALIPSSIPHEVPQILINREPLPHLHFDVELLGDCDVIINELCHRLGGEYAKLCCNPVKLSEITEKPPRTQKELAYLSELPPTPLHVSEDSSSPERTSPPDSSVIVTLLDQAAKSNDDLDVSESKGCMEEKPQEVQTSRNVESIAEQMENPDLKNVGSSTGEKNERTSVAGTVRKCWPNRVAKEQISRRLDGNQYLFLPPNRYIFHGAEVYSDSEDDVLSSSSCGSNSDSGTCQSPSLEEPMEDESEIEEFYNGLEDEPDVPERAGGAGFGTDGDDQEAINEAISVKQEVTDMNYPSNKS
Description: PreC cells were pretreated with EX527 for 5 h before cisplatin treatment.
Antibodies used in this study include those against XPA (Kamiya), XPB-XPD (Santa Cruz Biotechnology, Santa Cruz, Calif., USA), XPE, p-p53, p-CHK1, GAPDH, SIRT1, acetyl-lysine (Cell Signaling Technology), XPF, and XPG (both Abcam, Cambridge, UK). For immunoprecipitation of XPA, 1 mg of whole-cell lysate was incubated with 1 μg of anti-XPA conjugated to Protein A/G-agarose beads (Sigma, St. Louis, Mo., USA) for 12 h at 4° C. with rotation. After washing with lysis buffer, proteins were eluted from the beads by boiling in SDS sample buffer and resolved on 10% SDS-polyacrylamide gels. For detection of XPA acetylation, anti-acetyl-lysine was employed.

SIRT1 [6] = biological target: T1, SIRT1; assay: XPA loading to chromatin (chromatin-enriched fraction, immunoblotting); settings: EX527 pretreatment before cisplatin following UV-PreC; FIG. 8B

Row | Compound | 6-4PP removal, Pt-PreC vs nonPreC control (lung cancer cells [1]; 200 J/m^2 local UV irradiation, FIG. 7A) | XPA foci-positive cells, Pt-PreC vs nonPreC (lung cancer cells [1]; 60 min after UV exposure) | XPA foci-positive cells, Pt-PreC vs nonPreC (lung cancer cells [1]; within 30 min of recovery time) | kinetics of CPD repair after the same dose of UV, preconditioned vs nonPreC (lung cancer cells [2]) | remaining Pt-GpG adduct after Pt-PreC (lung cancer cells [3]; 48 h after Pt-PreC with 5 μM of cisplatin, FIG. 4A) | Pt-GpG repair kinetics upon following cisplatin treatment, Pt-PreC vs nonPreC (lung cancer cells [3]; Pt-PreC 5 μM, then 10 μM cisplatin, FIG. 4B) | time after PreC at which NER activity peaked [4] | time after PreC at which NER activity started to increase [4] | time after PreC at which enhancement of NER capacity was no longer detected [4] | effect on the UV-PreC-induced decrease in acetylation level of XPA (SIRT1 [5]) | effect on PreC-induced repair capacity (6-4PP repair kinetics) (lung cancer cells [1]; 1 μM EX-527 for 5 h before local UV irradiation, 6-4PP foci-positive cells counted 60 min after UV, FIG. 8C) | effect on UV-PreC-induced enhancement of XPA chromatin loading (SIRT1 [6])
1 | N.N.[Cl][Pt][Cl] [cisplatin] | accelerated the 6-4PP removal | approximately 3 times less | no difference | much faster | no remaining Pt-GpG adduct | much faster | 48 h | 12 h | 72 h | – | – | –
2 | NC(=O)C1CCCc2c1[nH]c1ccc(Cl)cc21 (stereo not drawn) [EX527, 6-chloro-2,3,4,9-tetrahydro-1H-carbazole-1-carboxamide] | – | – | – | – | – | – | – | – | – | immediately reversed | compromised by SIRT1 inhibition | reduced in the presence of EX527
